One series has as its system HIV. Briefly: Reverse transcriptase assay after prolonged culture (6 days with compound, further 10 days in fresh media). In kind it is cell-based. Conditions: then 10 days in fresh media. As for the experimental part: (§1) Figure 6 compares the effects of dextran polysulfate and substituted β-cyclodextrins on HIV infectivity. In (A) degree of syncytia inhibition is shown on the ordinate for each compound added. SUL = 600 µM β-CD-14S, AL = 600 µM unsubstituted β-CD, Pro = 600 µM propoxylated β-CD, 2MET = 300 µM methoxylated β-CD, DS5 = 600 µM dextran sulfate 5,000, DS500 = 600 µM dextran sulfate 500,000. Results for each of 3 time points are shown. In (B) similar results utilizing reverse transcriptase assays are shown. Infectious virus particles were incubated in the presence of sulfated β-cyclodextrin (lane 1), dextran sulfate 5000 (lane 2) or media (lane 3) for 6 days at which time cells were resuspended in fresh media and allowed to incubate a further 10 days before being harvested. Reverse transcriptase activity was assayed as described in Section 6.1, infra. 1/2 dilutions of the compound added are shown from bottom (highest concentration at 2.5 mM) to top (lowest concentration).
Virus infected cells were pelleted by centrifugation and 50 µl of culture suprenatant was collected from each well for assay. Culture supernatant (25 µl) was plated in 96 well round bottomed plates and 50 µl of transcriptase cocktail was added to each well. […] After incubation samples were spotted onto Whatman DEAE-81 paper, washed and analyzed by counting or direct autoradiography. […]

Series [1] concerns HIV-1. As to the kind of experiment: HIV-induced syncytia formation over time, comparison with dextran sulfates. The note with it: during the culture period (48 hours). In kind it is cell-based. The method, then: as §1
For the assay of HIV-1 fusion, Supt T1 cells were used as target cells. They fuse rapidly when cocultured with HIV-1 (H9/IIIb) producing cell lines. For the assay of HIV-2 mediated cell fusion, H9 cells were used as target cells. […] Target cells are then added 5 x 10⁵/well and the number of syncytia are qualitatively determined after the incubation periods described in the text.

The nature of a further series: Water solubility at 0°C. Format: physicochemical. As for the experimental part: The cyclic oligosaccharide derivatives useful in the present invention are highly hydrophilic and therefore very water soluble. A highly hydrophilic character probably is important to allow interaction with cellular surfaces. The hydrophilic activity is likely roughly indicated by the affinity to water, as measured by water solubility. It is important to measure the same at 0°C since at higher temperatures the most suitable derivative have solubilities so high that meaningful measurements are difficult.

The test system of series [2] is HIV-1. As to the kind of experiment: Viral RNA analysis by dot blot. Format: cell-based. The note with it: 1 mM. The method, then:
Virus particles were incubated with target cells in the presence or absence of […] of β-CD-14S. At 72 hours post infection, the cells were washed and dot blot assays were performed to determine the presence or absence of viral RNA production. In (A), target cells were infected in the presence of sulfated β-cyclodextrin (lane A), in the absence of cyclodextrins (lane B), or in the presence of unsubstituted β-cyclodextrin (lane C). 1/2 dilutions of cells are from left to right starting with 10⁶ cell/well utilized. In (B), virally infected cells (+) or uninfected cells (-) were assayed for their ability to produce viral RNA by dot blot analysis. CD = infected cells incubated with 1 mM of β-CD-14S. 1/2 dilutions of cells are from top to bottom starting with 10⁶ cell/well.
Virus treated cells were grown in tissue culture and harvested for assay at 72 hrs. post-infection. The cell concentrations were then adjusted to 1 x 10⁶ cells/m1 with phosphate buffered saline and spotted directly onto prewetted gene screen utilizing a dot blot apparatus. The filter was then fixed in 3% NaC1, 10 mM NaH₂PO₄, (pH 7.2) containing 1% gluteraldehyde at 4°C for 1 hr. The fixed blot was then rinsed three times with proteolytic buffer (50mM EDTA, 0.1 M Tris-HC1 (pH 8.0), 20 µg/ml proteinase K) for 30 minutes at 37°C. The filter was air dried until being probed. A Sall-Xho1 probe derived from the pIIIenv1 plasmid (a generous gift of Dr. J. Sodrofsky) and encoding the envelope region of the HXB2, HIV-1 virus was labeled by the random primer method using standard technology and hybridized to the filter as previously described (Weiner et al., 1986, Cell Immunol. 100:197).
To determine if the cyclodextrins were interfering with steps relevant to viral replication, the ability of these compounds to inhibit viral nucleic acid synthesis was determined. Virus particles were incubated with target cells in the presence or absence of 1 mM of β-CD-14S. At 72 hours post-infection, the cells were washed and dot blot assays were performed to determine the presence or absence of viral RNA production. […]

Take “beta-cyclodextrin tetradecasulfate [Beta-CD-14S]”: the “anti-viral activity (reverse transcriptase activity)” value with HIV is given as “significant anti-viral activity even after prolonged periods of tissue culture”. Besides, the anti-syncytial activity result in the series on HIV-1 [1] is “remained unchanged”. The “Solubility 0°C” value in “Water solubility at 0°C” was found to be 42 g/100ml H₂O. Further, the “ability of infected cells to produce viral RNA” value in the series on HIV-1 [2] (already infected cells incubated with compound) is on record as “not inhibited in their ability to produce viral RNA”. In addition, the “HIV-1 specific RNA” value with HIV-1 [2] (target cells infected in the presence of compound, 72 hours post-infection) is given as “little or no HIV-1 specific RNA was detected”.

The record behind these values is patent EP0423240B1, “MODULATION OF VIRUS-HOST CELL INTERACTIONS USING CYCLIC OLIGOSACCHARIDES” (THE TRUSTEES OF THE UNIVERSITY OF PENNSYLVANIA, priority 1988, dated 1990).
